The numbers were not newly measured in US20100068203A1, “17-Oxymacbecin Derivatives and Their Use in the Treatment of Cancer and/or B-Cell Malignancies” (priority 2006, published 2010), which cites them from elsewhere.

The target in one data set is Hsp90 (Homo sapiens, UniProt P07900).
For a further data set, the system named is SKBr3. As to conditions: compared with geldanamycin and 17-AAG.
The subject of the next data set is bacteria and fungi. As to conditions: in vitro.
The target in data set [1] is terminal deoxynucleotidyl transferase (Homo sapiens, UniProt P04053).
terminal deoxynucleotidyl transferase, sequence (P04053 whole entry, species assumed): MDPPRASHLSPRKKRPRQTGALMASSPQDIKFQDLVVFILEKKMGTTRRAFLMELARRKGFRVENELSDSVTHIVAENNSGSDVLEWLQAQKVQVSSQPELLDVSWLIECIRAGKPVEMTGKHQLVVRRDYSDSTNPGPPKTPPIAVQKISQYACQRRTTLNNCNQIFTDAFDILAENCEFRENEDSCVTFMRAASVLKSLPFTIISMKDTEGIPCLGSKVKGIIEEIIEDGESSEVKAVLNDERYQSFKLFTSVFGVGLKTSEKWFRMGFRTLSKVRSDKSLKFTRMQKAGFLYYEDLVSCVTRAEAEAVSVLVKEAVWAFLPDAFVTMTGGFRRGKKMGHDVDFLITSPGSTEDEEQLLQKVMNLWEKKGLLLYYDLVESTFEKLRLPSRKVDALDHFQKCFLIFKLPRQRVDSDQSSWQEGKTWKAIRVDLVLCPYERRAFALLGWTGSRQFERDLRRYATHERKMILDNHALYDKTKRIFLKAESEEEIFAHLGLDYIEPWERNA

On to `CO[C@H]1C[C@H](C)Cc2cc(O)cc(c2)NC(=O)/C=C/CC[C@H](OC)[C@@H](OC(N)=O)/C(C)=C/[C@H](C)[C@H]1O` [KOSN1559], for which the “binding affinity to Hsp90, greater than 17-AAG” value at Hsp90 (relative to 17-AAG) is listed as 8 fold. In addition, on Hsp90 (relative to geldanamycin), the “binding affinity to Hsp90, greater than geldanamycin” value is reported as 4 fold. In addition, the “IC50 measurement using SKBr3” value in the data set with SKBr3 is “not reflected in an improvement”.
Consider `COC1=C2C[C@@H](C)C[C@H](OC)[C@H](O)[C@@H](C)/C=C(\C)[C@H](OC(N)=O)[C@@H](OC)/C=C\C=C(/C)C(=O)NC(=CC1=O)C2=O` [geldanamycin], for which, in the data set on bacteria and fungi, the “activity against bacteria and fungi” value is “weak activity”. Also, the “activity in vitro against protozoa” value in the data set on protozoa is listed as “strong activity”.
On to `CO[C@H]1[C@@H](OC)C[C@H](C)[C@@H](OC)C2=CC(=O)C=C(NC(=O)/C(C)=C/C=C\[C@H](C)[C@@H](OC(N)=O)/C(C)=C/[C@@H]1C)C2=O` [macbecin], for which the “terminal deoxynucleotidyl transferase activity inhibition” value in data set [1] is on record as “not inhibited”. For the same molecule, the “Reverse transcriptase activity inhibition” value with Reverse transcriptase is listed as “not inhibited”.
